Measured values taken from patent US20250127162A1, “METHODS AND COMPOSITIONS FOR CONTROLLING PESTS IN RICE” (Globachem NV, priority 2022, published 2025).

Test system: Chilo suppressalis
Experiment: Rice field trials, control of Chilo suppressalis (Example 1, Trials 1-2, Spain)
Type: in vivo
Settings: applications AB
Method: All applications were made with an EC formulation containing 650 g/L of pelargonic acid (e.g., 685 g/L of 95% purity pelargonic acid), an anionic emulsifier and a branched fatty acid ester solvent.
Trials 1˜4 assessing the use of pelargonic acid for controlling Chilo suppressalis in rice were conducted in Spain and Thailand.
Application A was made to the crops at the beginning of infestations; for these trials, Stage BBCH 59; Application B was made 14 days after Application A.
(§1) Trial 1 was conducted in Spain using a water volume of 300 L/ha of water per application unless otherwise indicated. Pest Incidence/Number of Insects (PESINC) and Pest Severity (PESSEV) as a Percent of Untreated Check (% UNCK) as well as Phytotoxicity were assessed at various treatment evaluation intervals.
as §1, with “2” for “1”

[1] = Trial 1, 14 DAB, water volume 150 L/ha
[2] = Trial 1, 14 DAB, water volume 300 L/ha, rate in treatment name
[3] = Trial 1, 27 DAB, water volume 150 L/ha
[4] = Trial 1, 27 DAB, water volume 300 L/ha, rate in treatment name, listed as PA 585 g/ha
[5] = Trial 1, 27 DAB, water volume 300 L/ha, rate in treatment name, listed as PA 975 g/ha
[6] = Trial 1, 27 DAB, water volume 300 L/ha, rate in treatment name, listed as PA 1300 g/ha
[7] = Trial 1, 27 DAB, water volume 300 L/ha, rate in treatment name, listed as PA 2600 g/ha
[8] = Trial 1, 40 DAB, water volume 150 L/ha
[9] = Trial 1, 40 DAB, water volume 300 L/ha, rate in treatment name, listed as PA 585 g/ha
[10] = Trial 1, 40 DAB, water volume 300 L/ha, rate in treatment name, listed as PA 975 g/ha
[11] = Trial 1, 40 DAB, water volume 300 L/ha, rate in treatment name, listed as PA 1300 g/ha
[12] = Trial 1, 40 DAB, water volume 300 L/ha, rate in treatment name, listed as PA 2600 g/ha

CCCCCCCCC(=O)O [PA 650 g/ha, pelargonic acid] was tested, and the “PESINC (Pest Incidence/Number of Insects) % UNCK (% efficacy)” value [1] was 75 % UNCK, the “PESSEV (Pest Severity) % UNCK” value [1] was 75 % UNCK and the “PESINC (Pest Incidence/Number of Insects) % UNCK (% efficacy)” value [2] was 75 % UNCK. The “PESSEV (Pest Severity) % UNCK” value [2] was 75 % UNCK, the “PESINC (Pest Incidence/Number of Insects) % UNCK (% efficacy)” value [3] was 42.08 % UNCK and the “PESSEV (Pest Severity) % UNCK” value [3] was 42.08 % UNCK. For the same molecule, the “PESINC (Pest Incidence/Number of Insects) % UNCK (% efficacy)” value [4] was 30.83 % UNCK, the “PESSEV (Pest Severity) % UNCK” value [4] was 30.83 % UNCK and the “PESINC (Pest Incidence/Number of Insects) % UNCK (% efficacy)” value [5] was 42.08 % UNCK. For the same molecule, the “PESSEV (Pest Severity) % UNCK” value [5] was 42.08 % UNCK, the “PESINC (Pest Incidence/Number of Insects) % UNCK (% efficacy)” value [6] was 46.25 % UNCK and the “PESSEV (Pest Severity) % UNCK” value [6] was 50 % UNCK. For the same molecule, the “PESINC (Pest Incidence/Number of Insects) % UNCK (% efficacy)” value [7] was 59.58 % UNCK, the “PESSEV (Pest Severity) % UNCK” value [7] was 59.58 % UNCK and the “PESINC (Pest Incidence/Number of Insects) % UNCK (% efficacy)” value [8] was 43.75 % UNCK. For the same molecule, the “PESSEV (Pest Severity) % UNCK” value [8] was 43.75 % UNCK, the “PESINC (Pest Incidence/Number of Insects) % UNCK (% efficacy)” value [9] was 27.71 % UNCK and the “PESSEV (Pest Severity) % UNCK” value [9] was 29.21 % UNCK. For the same molecule, the “PESINC (Pest Incidence/Number of Insects) % UNCK (% efficacy)” value [10] was 46.88 % UNCK, the “PESSEV (Pest Severity) % UNCK” value [10] was 46.88 % UNCK and the “PESINC (Pest Incidence/Number of Insects) % UNCK (% efficacy)” value [11] was 47.5 % UNCK. For the same molecule, the “PESSEV (Pest Severity) % UNCK” value [11] was 47.5 % UNCK, the “PESINC (Pest Incidence/Number of Insects) % UNCK (% efficacy)” value [12] was 63.13 % UNCK and the “PESSEV (Pest Severity) % UNCK” value [12] was 63.13 % UNCK. For the same molecule, the “PESSEV (Pest Severity) % UNCK” value (Trial 2, 14 DAB, water volume 150 L/ha) was 100 % UNCK, the “PESSEV (Pest Severity) % UNCK” value (Trial 2, 14 DAB, water volume 300 L/ha, rate in treatment name) was 100 % UNCK and the “PESINC (Pest Incidence/Number of Insects) % UNCK” value (Trial 2, 15 DAB, water volume 150 L/ha) was 100 % UNCK. For the same molecule, the “PESINC (Pest Incidence/Number of Insects) % UNCK” value (Trial 2, 15 DAB, water volume 300 L/ha, rate in treatment name) was 100 % UNCK, the “PESSEV (Pest Severity) % UNCK” value (Trial 2, 27 DAB, water volume 150 L/ha) was 45.31 % UNCK and the “PESSEV (Pest Severity) % UNCK” value (Trial 2, 27 DAB, water volume 300 L/ha, rate in treatment name, listed as PA 585 g/ha) was 55.21 % UNCK. The “PESSEV (Pest Severity) % UNCK” value (Trial 2, 27 DAB, water volume 300 L/ha, rate in treatment name, listed as PA 975 g/ha) was 57.29 % UNCK, the “PESSEV (Pest Severity) % UNCK” value (Trial 2, 27 DAB, water volume 300 L/ha, rate in treatment name, listed as PA 1300 g/ha) was 69.27 % UNCK and the “PESSEV (Pest Severity) % UNCK” value (Trial 2, 27 DAB, water volume 300 L/ha, rate in treatment name, listed as PA 2600 g/ha) was 77.6 % UNCK. The “PESINC (Pest Incidence/Number of Insects) % UNCK” value (Trial 2, 28 DAB, water volume 150 L/ha) was 40 % UNCK, the “PESINC (Pest Incidence/Number of Insects) % UNCK” value (Trial 2, 28 DAB, water volume 300 L/ha, rate in treatment name, listed as PA 585 g/ha) was 45 % UNCK and the “PESINC (Pest Incidence/Number of Insects) % UNCK” value (Trial 2, 28 DAB, water volume 300 L/ha, rate in treatment name, listed as PA 975 g/ha) was 45 % UNCK. The “PESINC (Pest Incidence/Number of Insects) % UNCK” value (Trial 2, 28 DAB, water volume 300 L/ha, rate in treatment name, listed as PA 1300 g/ha) was 57.5 % UNCK, the “PESINC (Pest Incidence/Number of Insects) % UNCK” value (Trial 2, 28 DAB, water volume 300 L/ha, rate in treatment name, listed as PA 2600 g/ha) was 74.17 % UNCK and the “PESSEV (Pest Severity) % UNCK” value (Trial 2, 40 DAB, water volume 150 L/ha) was 57.29 % UNCK. For the same molecule, the “PESSEV (Pest Severity) % UNCK” value (Trial 2, 40 DAB, water volume 300 L/ha, rate in treatment name, listed as PA 585 g/ha) was 62.5 % UNCK, the “PESSEV (Pest Severity) % UNCK” value (Trial 2, 40 DAB, water volume 300 L/ha, rate in treatment name, listed as PA 975 g/ha) was 68.75 % UNCK and the “PESSEV (Pest Severity) % UNCK” value (Trial 2, 40 DAB, water volume 300 L/ha, rate in treatment name, listed as PA 1300 g/ha) was 68.75 % UNCK. The “PESSEV (Pest Severity) % UNCK” value (Trial 2, 40 DAB, water volume 300 L/ha, rate in treatment name, listed as PA 2600 g/ha) was 79.38 % UNCK and the “PESINC (Pest Incidence/Number of Insects) % UNCK” value (Trial 2, 41 DAB, water volume 150 L/ha) was 39.29 % UNCK.
